Measurements as given in ChEMBL document CHEMBL1201862, “PubChem BioAssay data set” (2004).
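Where inhibition never reached the appropriate level, the endpoint shown equals the highest concentration tested. Otherwise, values were interpolated linearly from a five-concentration, 48-hour dose response in 96-well plates. GI50: concentration for 50% inhibition of growth.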 Calls of active or inactive are those of the source. No stated cut-off is given here; in the data, active = GI50 up to about 1.1 µM and inactive = higher.

What was measured:
Assay in all cases: growth of human tumour cells (NCI), 48 h
MOLT-4 = tested on: MOLT-4
DMS-273 = tested on: DMS-273
OVCAR-8 = tested on: OVCAR-8
UO-31 = tested on: UO-31
HL-60 = tested on: HL-60
SN12C = tested on: SN12C
UACC-62 = tested on: UACC-62
KM12 = tested on: KM12
HT-29 = tested on: HT-29
K562 = tested on: K562
IGROV-1 = tested on: IGROV-1
M14 = tested on: M14
HOP-62 = tested on: HOP-62
TK-10 = tested on: TK-10
NCI-H226 = tested on: NCI-H226
SK-MEL-2 = tested on: SK-MEL-2
DMS-114 = tested on: DMS-114
MCF7 = tested on: MCF7
NCI/ADR-RES = tested on: NCI/ADR-RES
HCT-116 = tested on: HCT-116
DU-145 = tested on: DU-145
SNB-78 = tested on: SNB-78
MDA-N = tested on: MDA-N
Hs-578T = tested on: Hs-578T
MDA-MB-231 = tested on: MDA-MB-231
SNB-75 = tested on: SNB-75
SNB-19 = tested on: SNB-19
HOP-18 = tested on: HOP-18
M19-MEL = tested on: M19-MEL
CCRF-CEM = tested on: CCRF-CEM
SK-MEL-5 = tested on: SK-MEL-5
OVCAR-4 = tested on: OVCAR-4
786-0 = tested on: 786-0
EKVX = tested on: EKVX
HOP-92 = tested on: HOP-92
DLD-1 = tested on: DLD-1
NCI-H460 = tested on: NCI-H460
BT-549 = tested on: BT-549
COLO 205 = tested on: COLO 205
U-251 = tested on: U-251
XF498 = tested on: XF498
MDA-MB-435 = tested on: MDA-MB-435
RPMI-8226 = tested on: RPMI-8226
A549 = tested on: A549
SK-OV-3 = tested on: SK-OV-3
SF-295 = tested on: SF-295
SW-620 = tested on: SW-620
SF-268 = tested on: SF-268
CAKI-1 = tested on: CAKI-1
SR = tested on: SR
NCI-H522 = tested on: NCI-H522
NCI-H23 = tested on: NCI-H23
SF-539 = tested on: SF-539
LOX IMVI = tested on: LOX IMVI
Malme-3M = tested on: Malme-3M
T47D = tested on: T47D
ACHN = tested on: ACHN
OVCAR-3 = tested on: OVCAR-3
KM-20L2 = tested on: KM-20L2
RXF 393 = tested on: RXF 393
A498 = tested on: A498
HCT-15 = tested on: HCT-15
LXFL 529 = tested on: LXFL 529
OVCAR-5 = tested on: OVCAR-5
HCC 2998 = tested on: HCC 2998
PC-3 = tested on: PC-3
RXF 631 = tested on: RXF 631
SK-MEL-28 = tested on: SK-MEL-28
UACC-257 = tested on: UACC-257

## COc1cc(/C=C\c2ccc(SC)cc2)cc(OC)c1OC
MOLT-4
  GI50: 28.1 nM (active)
DMS-273
  GI50: 25.8 nM (active)
OVCAR-8
  GI50: 23.1 nM (active)
UO-31
  GI50: 104 nM (active)
HL-60
  GI50: < 12.3 nM (active)
SN12C
  GI50: 66.7 nM (active)
UACC-62
  GI50: 22.7 nM (active)
KM12
  GI50: 24.1 nM (active)
HT-29
  GI50: < 13.7 nM (active)
K562
  GI50: < 10 nM (active)
IGROV-1
  GI50: 63.2 nM (active)
M14
  GI50: 18.2 nM (active)
HOP-62
  GI50: 17.5 nM (active)
TK-10
  GI50: 23700 nM (inactive)
NCI-H226
  GI50: 979 nM (active)
SK-MEL-2
  GI50: 18.8 nM (active)
DMS-114
  GI50: < 20.2 nM (active)
MCF7
  GI50: 201 nM (active)
NCI/ADR-RES
  GI50: 39.5 nM (active)
HCT-116
  GI50: < 15.8 nM (active)
DU-145
  GI50: 43 nM (active)
SNB-78
  GI50: 45.2 nM (active)
MDA-N
  GI50: < 10 nM (active)
Hs-578T
  GI50: 13.2 nM (active)
MDA-MB-231
  GI50: 69.8 nM (active)
SNB-75
  GI50: < 10 nM (active)
SNB-19
  GI50: 24.7 nM (active)
HOP-18
  GI50: 45.3 nM (active)
M19-MEL
  GI50: 27.8 nM (active)
CCRF-CEM
  GI50: 20.2 nM (active)
SK-MEL-5
  GI50: < 15.2 nM (active)
OVCAR-4
  GI50: 10700 nM (inactive)
786-0
  GI50: 22.1 nM (active)
EKVX
  GI50: 6970 nM (inactive)
HOP-92
  GI50: 498 nM (active)
DLD-1
  GI50: 40.9 nM (active)
NCI-H460
  GI50: 17.1 nM (active)
BT-549
  GI50: < 10 nM (active)
COLO 205
  GI50: 27.1 nM (active)
U-251
  GI50: 84.5 nM (active)
XF498
  GI50: 90.8 nM (active)
MDA-MB-435
  GI50: < 10 nM (active)
RPMI-8226
  GI50: 33.1 nM (active)
A549
  GI50: 21.5 nM (active)
SK-OV-3
  GI50: 14.1 nM (active)
SF-295
  GI50: 11.9 nM (active)
SW-620
  GI50: < 10 nM (active)
SF-268
  GI50: 40.6 nM (active)
CAKI-1
  GI50: 244 nM (active)
SR
  GI50: < 10 nM (active)
NCI-H522
  GI50: 13.3 nM (active)
NCI-H23
  GI50: 26.8 nM (active)
SF-539
  GI50: < 14.5 nM (active)
LOX IMVI
  GI50: < 26.2 nM (active)
Malme-3M
  GI50: 381 nM (active)
T47D
  GI50: 19700 nM (inactive)
ACHN
  GI50: 467 nM (active)
OVCAR-3
  GI50: 12.8 nM (active)
KM-20L2
  GI50: 18.2 nM (active)
RXF 393
  GI50: 11.7 nM (active)
A498
  GI50: 883 nM (active)
HCT-15
  GI50: 32.9 nM
LXFL 529
  GI50: < 22.1 nM (active)
OVCAR-5
  GI50: 1150 nM (inactive)
HCC 2998
  GI50: < 10 nM (active)
PC-3
  GI50: < 10 nM (active)

## CC(=O)C1C(=O)C(=O)N(c2ccccc2N2C(=O)C(=O)C(C(C)=O)C2=O)C1=O (stereo not drawn)
MOLT-4
  GI50: > 100000 nM (inactive)
OVCAR-8
  GI50: > 100000 nM (inactive)
UO-31
  GI50: > 100000 nM (inactive)
HL-60
  GI50: > 100000 nM (inactive)
RXF 631
  GI50: > 100000 nM (inactive)
SN12C
  GI50: > 100000 nM (inactive)
UACC-62
  GI50: > 100000 nM (inactive)
KM12
  GI50: > 100000 nM (inactive)
HT-29
  GI50: > 100000 nM (inactive)
K562
  GI50: > 100000 nM (inactive)
IGROV-1
  GI50: > 100000 nM (inactive)
M14
  GI50: > 100000 nM (inactive)
HOP-62
  GI50: > 100000 nM (inactive)
TK-10
  GI50: > 100000 nM (inactive)
SK-MEL-28
  GI50: > 100000 nM (inactive)
NCI-H226
  GI50: > 100000 nM (inactive)
SK-MEL-2
  GI50: > 100000 nM (inactive)
DMS-114
  GI50: > 100000 nM (inactive)
HCT-116
  GI50: > 100000 nM (inactive)
SNB-78
  GI50: > 100000 nM (inactive)
SNB-75
  GI50: > 100000 nM (inactive)
SNB-19
  GI50: > 100000 nM (inactive)
HOP-18
  GI50: > 100000 nM (inactive)
M19-MEL
  GI50: > 100000 nM (inactive)
CCRF-CEM
  GI50: > 100000 nM (inactive)
SK-MEL-5
  GI50: > 100000 nM (inactive)
OVCAR-4
  GI50: > 100000 nM (inactive)
786-0
  GI50: > 100000 nM (inactive)
EKVX
  GI50: 39900 nM (inactive)
HOP-92
  GI50: > 100000 nM (inactive)
DLD-1
  GI50: > 100000 nM (inactive)
NCI-H460
  GI50: > 100000 nM (inactive)
COLO 205
  GI50: > 100000 nM (inactive)
U-251
  GI50: > 100000 nM (inactive)
RPMI-8226
  GI50: > 100000 nM (inactive)
UACC-257
  GI50: > 100000 nM (inactive)
A549
  GI50: > 100000 nM (inactive)
SK-OV-3
  GI50: > 100000 nM (inactive)
SF-295
  GI50: > 100000 nM (inactive)
SW-620
  GI50: > 100000 nM (inactive)
SF-268
  GI50: > 100000 nM (inactive)
CAKI-1
  GI50: > 100000 nM (inactive)
SR
  GI50: > 100000 nM (inactive)
NCI-H522
  GI50: > 100000 nM (inactive)
NCI-H23
  GI50: > 100000 nM (inactive)
SF-539
  GI50: > 100000 nM (inactive)
LOX IMVI
  GI50: > 100000 nM (inactive)
Malme-3M
  GI50: > 100000 nM (inactive)
ACHN
  GI50: > 100000 nM (inactive)
OVCAR-3
  GI50: > 100000 nM (inactive)
KM-20L2
  GI50: > 100000 nM (inactive)
RXF 393
  GI50: > 100000 nM (inactive)
A498
  GI50: > 100000 nM (inactive)
HCT-15
  GI50: > 100000 nM
LXFL 529
  GI50: > 100000 nM (inactive)
OVCAR-5
  GI50: > 100000 nM (inactive)
HCC 2998
  GI50: > 100000 nM (inactive)
